{
  "source": "patent EP0498899A1",
  "about": "“Use of N-(mercaptoacyl)-amino acids as dopaminergic und gonadoptropic medicaments” (Weth, Gosbert Dr. med., Dr. rer. nat., priority 1990, dated 1992)",
  "key": {"Dopamin": {"tested_on": "Dopamin", "test": "Determination of dopamine in blood plasma of patients after administration (method of G. Weth)", "assay_type": "in vivo, Patienten", "settings": "for Dopamin MW: 25 mg Captopril, mean of 12 patients, value at time 0: 110", "text": "(§1) Die Dopaminbestimmung wurde nach G. Weth, \"Das Verhalten der Neurotransmitter....\", Dissertation, Würzburg, 1987, S. 123-138, durchgeführt. Die Bestimmung von Prolaktin wurde radioimmunologisch nach den Methoden von P. Hwang, H. Guyda, H. Friesen, Proc. Nat. Sci. (USA) 1971, 68/8, S.1902-06 durchgeführt.\n(§2) Für die Untersuchungen wurden 2x12 Patienten (Alter 75±10 Jahre), die unter Durchblutungsstörungen, sowohl peripheren als auch zentralen, litten, herangezogen. […]\nDie Bestimmung der Dopamin- und Prolaktinwerte wurde wie folgt vorgenommen. In angegebenen Zeitabschnitten von 15, 30, 60 und 120 Minuten wurden dem Patienten je 5 ml Blut entnommen und in speziell präparierte Vakuum-Container, die Glutathion und EDTA enthielten, gegeben. Das Blut wurde sofort auf 2 °C abgekühlt und bei 2 °C zentrifugiert. Das überstehende Blutplasma wurde bis zur Dopamin- und Prolaktinbestimmung bei minus 80 °C tiefgefroren.\n(§3) In den Tabellen sind die Ergebnisse der vorstehend angeführten pharmakologischen Untersuchungen zusammengestellt. Die Dimensionsangaben betragen für Dopamin pg/ml bzw. ng/l und für Prolaktin ng/ml."}, "Prolaktin": {"tested_on": "Prolaktin", "test": "Radioimmunological determination of prolactin in blood plasma of patients after administration", "assay_type": "in vivo, Patienten", "settings": "for Prolaktin MW: 25 mg Captopril, mean of 12 patients; for Prolaktinsenkung (Effekt): Fig. 2, result in words", "text": "as §1, §2\nDie Bestimmung der Dopamin- und Prolaktinwerte wurde wie folgt vorgenommen. […] Das Blut wurde sofort auf 2 °C abgekühlt und bei 2 °C zentrifugiert. Das überstehende Blutplasma wurde bis zur Dopamin- und Prolaktinbestimmung bei minus 80 °C tiefgefroren.\nas §3"}},
  "data": [
    {"smiles": "C[C@H](CS)C(=O)N1CCC[C@H]1C(=O)O", "note": "[Captopril]", "values": [
      {"measurement": "Höhepunkt des Anstiegs von Dopamin (time)", "setting": "Dopamin; 25 mg Captopril oral per patient (mean weight 60 kg), Fig. 1", "result": "~60", "unit": "min"},
      {"measurement": "Dopamin MW", "setting": "Dopamin; 15 min after dosing", "result": 163, "unit": "pg/mL"},
      {"measurement": "Dopamin MW", "setting": "Dopamin; 30 min after dosing", "result": 210, "unit": "pg/mL"},
      {"measurement": "Dopamin MW", "setting": "Dopamin; 60 min after dosing", "result": 291, "unit": "pg/mL"},
      {"measurement": "Dopamin MW", "setting": "Dopamin; 90 min after dosing", "result": 250, "unit": "pg/mL"},
      {"measurement": "Dopamin MW", "setting": "Dopamin; 120 min after dosing", "result": 211, "unit": "pg/mL"},
      {"measurement": "Maximum der Dopaminfreisetzung (time)", "setting": "Dopamin; 12,5 mg Captopril, Fig. 3", "result": 60, "unit": "min"},
      {"measurement": "Anstieg von Dopamin", "setting": "Dopamin; 15 min after 25 mg Captopril oral per patient (mean weight 60 kg), Fig. 1, result in words", "result": "signifikanten Anstieg"},
      {"measurement": "Anstieg von Dopamin", "setting": "Dopamin; 30 min after 25 mg Captopril, result in words", "result": "hochsignifikanten Anstieg"},
      {"measurement": "Anstieg (Dopaminfreisetzung)", "setting": "Dopamin; 30 min after 12,5 mg Captopril, Fig. 3, result in words", "result": "signifikant"},
      {"measurement": "Prolaktin MW", "setting": "Prolaktin; 15 min after dosing, value at time 0: 14,3", "result": "13,6 ng/ml"},
      {"measurement": "Prolaktin MW", "setting": "Prolaktin; 30 min after dosing, value at time 0: 14,8", "result": "12,3 ng/ml"},
      {"measurement": "Prolaktin MW", "setting": "Prolaktin; 60 min after dosing, value at time 0: 14,8", "result": "9,0 ng/ml"},
      {"measurement": "Prolaktin MW", "setting": "Prolaktin; 90 min after dosing, value at time 0: 14,8", "result": "8,4 ng/ml"},
      {"measurement": "Prolaktin MW", "setting": "Prolaktin; 120 min after dosing, value at time 0: 14,8", "result": "7,9 ng/ml"},
      {"measurement": "Prolaktinsenkung (Effekt)", "setting": "Prolaktin; 15 min after 25 mg Captopril oral per patient (mean weight 60 kg)", "result": "signifikanter"},
      {"measurement": "Prolaktinsenkung (Effekt)", "setting": "Prolaktin; 60 min after 25 mg Captopril oral per patient (mean weight 60 kg)", "result": "hochsignifikanter"}
    ]}
  ]
}
